Experiments:
Experiment in all cases: relative viability (nuclei count vs DMSO), 5 days (fraction); higher = more cells survive
Afatinib + Bortezomib = compound: CN(C)C/C=C/C(=O)Nc1cc2c(Nc3ccc(F)c(Cl)c3)ncnc2cc1O[C@H]1CCOC1 [Afatinib] + CC(C)C[C@H](NC(=O)[C@H](Cc1ccccc1)NC(=O)c1cnccn1)B(O)O [Bortezomib] (partner 0.002 µM)
How it was run: (§1)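 For relative viability, nuclei counts in treated wells were divided by those in vehicle wells. Lung cancer cell lines had been pin-tool dosed in 1536-well plates the day after seeding and cultured for 5 days, then fixed and stained in one step (final 0.05% Triton X-100, 1% formaldehyde, 1 ug/ml Hoechst) and imaged at 4×. Doses were one drug alone or a fixed anchor-drug dose plus five library-drug doses (not always all listed) in √10 steps, and values are duplicate-plate medians.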

Afatinib + Lapatinib = compound: CN(C)C/C=C/C(=O)Nc1cc2c(Nc3ccc(F)c(Cl)c3)ncnc2cc1O[C@H]1CCOC1 [Afatinib] + CS(=O)(=O)CCNCc1ccc(-c2ccc3ncnc(Nc4ccc(OCc5cccc(F)c5)c(Cl)c4)c3c2)o1 [Lapatinib] (partner 2 µM)
How it was run: as §1

Afatinib + AZD7762 = compound: CN(C)C/C=C/C(=O)Nc1cc2c(Nc3ccc(F)c(Cl)c3)ncnc2cc1O[C@H]1CCOC1 [Afatinib] + NC(=O)Nc1cc(-c2cccc(F)c2)sc1C(=O)N[C@H]1CCCNC1 [AZD7762] (partner 0.2 µM)
How it was run: as §1

Afatinib + Decitabine = compound: CN(C)C/C=C/C(=O)Nc1cc2c(Nc3ccc(F)c(Cl)c3)ncnc2cc1O[C@H]1CCOC1 [Afatinib] + Nc1ncn([C@H]2C[C@H](O)[C@@H](CO)O2)c(=O)n1 [Decitabine] (partner 2 µM)
How it was run: as §1

| Cell Line | relative viability (Afatinib + Bortezomib; first compound 0.005 µM) | relative viability (Afatinib + Bortezomib; first compound 0.01581 µM) | relative viability (Afatinib + Bortezomib; first compound 0.05 µM) | relative viability (Afatinib + Bortezomib; first compound 0.1581 µM) | relative viability (Afatinib + Bortezomib; first compound 0.5 µM) | relative viability (Afatinib + Lapatinib; first compound 0.005 µM) | relative viability (Afatinib + Lapatinib; first compound 0.01581 µM) | relative viability (Afatinib + Lapatinib; first compound 0.05 µM) | relative viability (Afatinib + Lapatinib; first compound 0.1581 µM) | relative viability (Afatinib + Lapatinib; first compound 0.5 µM) | relative viability (Afatinib + AZD7762; first compound 0.005 µM) | relative viability (Afatinib + AZD7762; first compound 0.01581 µM) | relative viability (Afatinib + AZD7762; first compound 0.05 µM) | relative viability (Afatinib + AZD7762; first compound 0.1581 µM) | relative viability (Afatinib + AZD7762; first compound 0.5 µM) | relative viability (Afatinib + Decitabine; first compound 0.005 µM) | relative viability (Afatinib + Decitabine; first compound 0.01581 µM) | relative viability (Afatinib + Decitabine; first compound 0.05 µM) | relative viability (Afatinib + Decitabine; first compound 0.1581 µM) | relative viability (Afatinib + Decitabine; first compound 0.5 µM) |
| --- | --- | --- | --- | --- | --- | --- | --- | --- | --- | --- | --- | --- | --- | --- | --- | --- | --- | --- | --- | --- |
| EKVX | 0.811 | 0.655 | 0.468 | 0.308 | 0.199 | 0.191 | 0.18 | 0.188 | 0.208 | 0.198 | 0.638 | 0.368 | 0.373 | 0.315 | 0.865 | 0.248 | 0.208 | 0.218 | 0.159 | 0.171 |
| EMC-BAC-2 | 1.03 | 1.05 | 1 | 0.927 | 1.03 | 0.888 | 0.858 | 0.892 | 0.941 | 0.91 | 1.07 | 1.17 | 1.14 | 1.06 | 1.19 | 0.968 | 0.924 | 0.98 | 0.901 | 1.02 |
| EPLC-272H | 0.879 | 0.88 | 0.905 | 0.78 | 0.861 | 0.941 | 0.826 | 0.941 | 0.863 | 0.924 | 0.139 | 0.229 | 0.175 | 0.187 | 0.168 | 0.355 | 0.328 | 0.359 | 0.309 | 0.348 |
| H3255 | 0.252 | 0.194 | 0.221 | 0.184 | 0.231 | 0.244 | 0.227 | 0.242 | 0.215 | 0.215 | 0.405 | 0.284 | 0.278 | 0.259 | 0.287 | 0.256 | 0.167 | 0.179 | 0.189 | 0.172 |
| HARA | 1.02 | 0.763 | 0.683 | 0.836 | 0.754 | 0.727 | 0.668 | 0.608 | 0.688 | 0.888 | – | – | 0.225 | 0.217 | 0.287 | 0.548 | – | 0.413 | 0.325 | 0.349 |
| HCC-15 | 1.04 | 1.09 | 1.04 | 1.04 | 1.03 | 0.84 | 0.92 | 0.859 | 0.859 | 0.82 | 1.14 | 1.39 | 1.32 | 1.19 | 1.05 | 0.75 | 0.622 | 0.625 | 0.594 | 0.645 |
| HCC-44 | 1.04 | 0.91 | 0.891 | 0.903 | 1.01 | 1.09 | 1.03 | 0.953 | 0.97 | 1.02 | 0.98 | 0.973 | 1.07 | 1 | 0.959 | 0.99 | 0.96 | 0.981 | 0.968 | 1.07 |
| IA-LM | 0.929 | 0.719 | 0.796 | 0.828 | 0.825 | 0.935 | 0.867 | 0.753 | 0.828 | 0.708 | – | – | – | – | – | – | – | – | – | – |

— the supplement of paper PMC10307832
